Source: publication PMC7865655, “Click Conjugation of Boron Dipyrromethene (BODIPY) Fluorophores to EGFR-Targeting Linear and Cyclic Peptides” (Molecules, 2021)

Tests used:
[1] = system: extracellular domain of EGFR; settings: cited from earlier work; for affinity for EGFR (in words): binding to domain I of the extracellular domain of EGFR
Description: (§1) We have previously reported the conjugation of BODIPYs to the EGFR-L1 peptide via traditional amidation reactions, and nucleophilic additions to isothiocyanato-functionalized fluorophores. Herein we report the use of click chemistry for conjugation of two EGFR-L1-derived peptides bearing an azide N-terminus (cycloL1.1 and L1.5) to alkynyl-functionalized BODIPYs. […] In previous work, we reported the conjugation of this peptide to a porphyrin [19], phthalocyanine, and BODIPY dyes, using either traditional amidation methodologies or nucleophilic addition to isothiocyanato-functionalized fluorophores. […] In order ...

[2] = cited from earlier work
Description: as §1

HEp2 cells [3] = assay: Phototoxicity (~1 J·cm^−2), CellTiter Blue assay; format: cell-based, human; settings: up to 100 µM, light dose ~1 J·cm^−2, CellTiter Blue
Description: In addition to dark toxicity, phototoxicity was assessed for the BODIPYs and their conjugates, under a low light dose of ~1 J·cm^−2 in human carcinoma HEp2 cells using the CTB assay to determine cell viability. Dose-dependent cell survival curves of each compound over the incubation period of 24 h are shown in Figure S20 (Supporting Information). […] Nevertheless, all conjugates are considered to have low phototoxicity in HEp2 cells at the low light dose used in this study.
(§2) For cellular studies, commercially available reagents and culture media were purchased from Life Technologies (Carlsbad, CA, USA) and human carcinoma HEp2 (ATCC CCL-23) cells were purchased from the American Type Culture Collection (ATCC) (Manassas, Virginia, USA). HEp2 cells were cultured and maintained at 37 °C under 5% CO2 and 95% humidity in minimum essential media (MEM) supplemented with 10% fetal bovine serum (FBS) and 1% penicillin-streptomycin (P/S).
HEp2 cells were exposed to working solutions of each compound up to 100 µM (0, 3.125, 6.25, 12.5, 25, 50, and 100 µM) and incubated for 24 h (5% CO2, 95% humidity, 37 °C). The loading medium was removed and the cells were washed with PBS solution. […] Cell viability was assessed as described above.

HEp2 cells [4] = assay: Dark cytotoxicity, CellTiter Blue assay; format: cell-based, human; settings: 24 h incubation, up to 200 µM, darkness
Description: The dark toxicity of all compounds was determined in HEp2 cells at concentrations up to 200 µM, using a CellTiter Blue (CTB) assay to determine cell viability. BODIPYs 1 and 2 (lacking peptide) were included in this study for comparison purposes. […] This might be a result of the presence of the indole group, since it is a known pharmacophore and the basis of many drugs, such as indomethacin [44, 49].
as §2
Stock solutions (32 mM) for compounds 1, 2, 3, 4, and 5 were prepared using 100% DMSO as the solvent. […] Following the incubation period, cell viability was assessed by determining fluorescence intensity at 570/615 nm using a BMG FLUOstar Optima microplate reader (BMG Labtech, Cary, NC, USA). The fluorescence intensity was normalized to 100% for untreated cells and the results are expressed as a percentage of viable cells.

HT-29 cells = assay: Competitive binding of conjugate 5 with cycloL1.1, BODIPY fluorescence; format: cell-based; settings: HT-29 (~78% EGFR expression); conjugate 5 at 50 μM, cyclo(K(N3)larllt) 0.25 to 100 μM, 45 min, 37 °C, PBS; ex 614 / em 648 nm; triplicate
Description: In these studies, HT-29 (~78% EGFR expression), DLD-1 (~40% EGFR expression), and LOVO (~6% EGFR expression) were used.
Cells HT-29 (~78% EGFR) DLD-1 (~37% EGFR) and LOVO (~6% EGFR) with high, moderate, and low EGFR expressions, respectively, were used in these studies. About ten thousand cells of each cell line were coated in a 96 well clear bottom tissue culture black plate and incubated overnight at 37 °C with 5% CO2. […] PBS was used for dilution of compounds. The plate was then covered in aluminum foil and incubated at 37 °C with 5% CO2. After 45 min, each well was washed twice with 100 μL of PBS, and fluorescence was determined with a microplate reader using an excitation wavelength of 614 nm and an emission wavelength of 648 nm. Autofluorescence values were subtracted from each well. A plot of concentrations vs. relative fluorescence was plotted. Results in Figure 4 are expressed as ±S.E.

| Compound | affinity for EGFR (in words) [1] | stability in human serum (in words) [2] | also measured |
| --- | --- | --- | --- |
| LARLLT [EGFR-L1, EGFR-targeting peptide ligand reported in 2009 by Song et al, reference compound] | – | – | affinity for the extracellular domain of EGFR (in words) ([1]; both in vitro and in vivo): high affinity |
| K(N3)LARLLT [Conjugate L1.5, linear EGFR-L1-derived azido peptide] | increased affinity for EGFR compared to the parent peptide | enhanced stability in human serum | – |
| CCC1=C(C)C2=C(c3ccc(OCc4cn(CCCC[C@H](N)C(=O)N[C@@H](CC(C)C)C(=O)N[C@@H](C)C(=O)N[C@@H](CCCNC(=N)N)C(=O)N[C@@H](CC(C)C)C(=O)N[C@@H](CC(C)C)C(=O)N[C@H](C(N)=O)[C@@H](C)O)nn4)cc3)c3c(C)c(CC)c(C)n3[B-](F)(F)[N+]2=C1C [Conjugate 3, 1,3,5,7-tetramethyl-2,6-diethyl-8-(4-phenoxymethyltriazole K(N3)LARLLT)-BODIPY] | – | – | phototoxicity, ranking in words (HEp2 cells [3]): least toxic; dark toxicity, ranking in words (HEp2 cells [4]): least toxic |
| CC(C)C[C@H]1NC(=O)[C@H](CCCCN=[N+]=[N-])NC(=O)[C@@H]([C@H](C)O)NC(=O)[C@@H](CC(C)C)NC(=O)[C@@H](CC(C)C)NC(=O)[C@@H](CCCNC(=N)N)NC(=O)[C@@H](C)NC1=O [cycloL1.1, cyclo(K(N3)larllt)] | high affinity | enhanced stability in human serum | competitive binding: change of BODIPY fluorescence intensity with added cyclic peptide (HT-29 cells): able to replace conjugate 5 competitively |
